# Literature values in patent publication US20040096496A1, “Sustained release pharmaceutical composition of a cephalosporin antibiotic” (Orchid Chemicals & Pharmaceuticals Limited, priority 2002, published 2004).
# Conditions: background statement, species not given
compound,measurement,value
CC=CC1=C(C(=O)O)N2C(=O)[C@@H](NC(=O)[C@H](N)c3ccc(O)cc3)[C@H]2SC1 [Cefprozil],half-life,1.17 h
